What was measured:
Assay type in all cases: physicochemical
[1] = Solubility and rate of dissolution in organo-solvents or oils (comparison of crystal forms); settings: Form I vs Form II
[2] = Stability of the crystal in the dry form
[3] = Solubility profile in dichloromethane; settings: 20° C.-25° C.

| SMILES | rate of dissolution in organo-solvents or oils relative to the other crystal form [1] | solubility in organo-solvents or oils relative to the other crystal form [1] | stability [2] | solubility profile in dichloromethane [3] |
| --- | --- | --- | --- | --- |
| CC1=C(/C=C/C(C)=C/C=C/C(C)=C/C=C/C=C(C)/C=C/C=C(C)/C=C/C2=C(C)C(=O)C(O)CC2(C)C)C(C)(C)CC(O)C1=O (stereo not drawn) [Crystal Form I, 3,3′-dihydroxy-β,β-carotene-4,4′-dione] | higher | higher solubility | stable in the dry form | 35 to 45 g/L |
| CC1=C(/C=C/C(C)=C/C=C/C(C)=C/C=C/C=C(C)/C=C/C=C(C)/C=C/C2=C(C)C(=O)C(O)CC2(C)C)C(C)(C)CC(O)C1=O (stereo not drawn) [Crystal Form II, 3,3′-dihydroxy-β,β-carotene-4,4′-dione] |  | lower solubility |  | 10-30 g/l |
